In ChEMBL document CHEMBL1201862, “PubChem BioAssay data set” (2004):
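48-hour exposure; five concentrations; linearly interpolated endpoints. GI50 is the concentration that inhibits growth by half.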 The source made the active and inactive calls. No stated cut-off is given here; in the data, active = GI50 up to about 1.1 µM and inactive = higher.

Legend:
Experiment in all cases: inhibition of tumour cell growth, NCI panel, 48 h
SK-MEL-2 = tested on: SK-MEL-2
HCT-15 = tested on: HCT-15
IGROV-1 = tested on: IGROV-1
CCRF-CEM = tested on: CCRF-CEM
LXFL 529 = tested on: LXFL 529
XF498 = tested on: XF498
UACC-257 = tested on: UACC-257
SF-295 = tested on: SF-295
OVCAR-3 = tested on: OVCAR-3
K562 = tested on: K562
KM12 = tested on: KM12
SNB-75 = tested on: SNB-75
U-251 = tested on: U-251
SF-539 = tested on: SF-539
RXF 393 = tested on: RXF 393
SNB-78 = tested on: SNB-78
786-0 = tested on: 786-0
UO-31 = tested on: UO-31
DMS-273 = tested on: DMS-273
DLD-1 = tested on: DLD-1
DMS-114 = tested on: DMS-114
CAKI-1 = tested on: CAKI-1
OVCAR-5 = tested on: OVCAR-5
HOP-18 = tested on: HOP-18
A498 = tested on: A498
SR = tested on: SR
SK-MEL-28 = tested on: SK-MEL-28
HOP-62 = tested on: HOP-62
M19-MEL = tested on: M19-MEL
SK-MEL-5 = tested on: SK-MEL-5
OVCAR-4 = tested on: OVCAR-4
SW-620 = tested on: SW-620
M14 = tested on: M14
NCI-H23 = tested on: NCI-H23
MOLT-4 = tested on: MOLT-4
SNB-19 = tested on: SNB-19
Malme-3M = tested on: Malme-3M
SF-268 = tested on: SF-268
TK-10 = tested on: TK-10
A549 = tested on: A549
LOX IMVI = tested on: LOX IMVI
HL-60 = tested on: HL-60
EKVX = tested on: EKVX
NCI-H460 = tested on: NCI-H460
SN12C = tested on: SN12C
COLO 205 = tested on: COLO 205
NCI-H522 = tested on: NCI-H522
HT-29 = tested on: HT-29
ACHN = tested on: ACHN
HCT-116 = tested on: HCT-116
OVCAR-8 = tested on: OVCAR-8
UACC-62 = tested on: UACC-62
SK-OV-3 = tested on: SK-OV-3
HOP-92 = tested on: HOP-92
RPMI-8226 = tested on: RPMI-8226
KM-20L2 = tested on: KM-20L2
NCI-H226 = tested on: NCI-H226
HCC 2998 = tested on: HCC 2998

Cc1cc(Br)ccc1/N=N/c1c(C)nn(-c2ccccc2)c1-c1ccccc1
GI50 (SK-MEL-2): > 100 µM (inactive)
GI50 (HCT-15): 9.82 µM
GI50 (IGROV-1): 93.5 µM (inactive)
GI50 (CCRF-CEM): 21.2 µM (inactive)
GI50 (LXFL 529): 45.8 µM (inactive)
GI50 (XF498): > 100 µM (inactive)
GI50 (UACC-257): 49.3 µM (inactive)
GI50 (SF-295): 75.2 µM (inactive)
GI50 (OVCAR-3): 99.5 µM (inactive)
GI50 (K562): 17 µM (inactive)
GI50 (KM12): 57 µM (inactive)
GI50 (SNB-75): > 100 µM (inactive)
GI50 (U-251): 27 µM (inactive)
GI50 (SF-539): 92.3 µM (inactive)
GI50 (RXF 393): 33.3 µM (inactive)
GI50 (SNB-78): > 100 µM (inactive)
GI50 (786-0): 58.3 µM (inactive)
GI50 (UO-31): > 100 µM (inactive)
GI50 (DMS-273): 34.3 µM (inactive)
GI50 (DLD-1): 30.9 µM (inactive)
GI50 (DMS-114): 89.5 µM (inactive)
GI50 (CAKI-1): 71.3 µM (inactive)
GI50 (OVCAR-5): 53.7 µM (inactive)
GI50 (HOP-18): > 100 µM (inactive)
GI50 (A498): > 100 µM (inactive)
GI50 (SR): > 100 µM (inactive)
GI50 (SK-MEL-28): > 100 µM (inactive)
GI50 (HOP-62): > 100 µM (inactive)
GI50 (M19-MEL): > 100 µM (inactive)
GI50 (SK-MEL-5): 29 µM (inactive)
GI50 (OVCAR-4): > 100 µM (inactive)
GI50 (SW-620): 81.5 µM (inactive)
GI50 (M14): > 100 µM (inactive)
GI50 (NCI-H23): > 100 µM (inactive)
GI50 (MOLT-4): > 100 µM (inactive)
GI50 (SNB-19): > 100 µM (inactive)
GI50 (Malme-3M): > 100 µM (inactive)
GI50 (SF-268): > 100 µM (inactive)
GI50 (TK-10): > 100 µM (inactive)
GI50 (A549): 81.8 µM (inactive)
GI50 (LOX IMVI): 16.6 µM (inactive)
GI50 (HL-60): 5.05 µM (inactive)
GI50 (EKVX): > 100 µM (inactive)
GI50 (NCI-H460): 45.8 µM (inactive)
GI50 (SN12C): 97.5 µM (inactive)
GI50 (COLO 205): > 100 µM (inactive)
GI50 (NCI-H522): 51.6 µM (inactive)
GI50 (HT-29): 44.5 µM (inactive)
GI50 (ACHN): 54.7 µM (inactive)
GI50 (HCT-116): 9.08 µM (inactive)
GI50 (OVCAR-8): > 100 µM (inactive)
GI50 (UACC-62): 27 µM (inactive)
GI50 (SK-OV-3): > 100 µM (inactive)
GI50 (HOP-92): 98.6 µM (inactive)
GI50 (RPMI-8226): > 100 µM (inactive)

COC(=O)CC1NC(=O)C1C1(C)OCCO1 (configuration not stated)
GI50 (SK-MEL-2): > 100 µM (inactive)
GI50 (HCT-15): > 100 µM
GI50 (IGROV-1): > 100 µM (inactive)
GI50 (LXFL 529): > 100 µM (inactive)
GI50 (XF498): > 100 µM (inactive)
GI50 (UACC-257): > 100 µM (inactive)
GI50 (SF-295): > 100 µM (inactive)
GI50 (OVCAR-3): > 100 µM (inactive)
GI50 (SNB-75): 28 µM (inactive)
GI50 (U-251): > 100 µM (inactive)
GI50 (SF-539): > 100 µM (inactive)
GI50 (RXF 393): > 100 µM (inactive)
GI50 (786-0): > 100 µM (inactive)
GI50 (UO-31): > 100 µM (inactive)
GI50 (DMS-273): > 100 µM (inactive)
GI50 (DLD-1): > 100 µM (inactive)
GI50 (DMS-114): > 100 µM (inactive)
GI50 (A498): > 100 µM (inactive)
GI50 (KM-20L2): > 100 µM (inactive)
GI50 (SR): > 100 µM (inactive)
GI50 (SK-MEL-28): > 100 µM (inactive)
GI50 (HOP-62): > 100 µM (inactive)
GI50 (M19-MEL): > 100 µM (inactive)
GI50 (SK-MEL-5): > 100 µM (inactive)
GI50 (OVCAR-4): > 100 µM (inactive)
GI50 (SW-620): > 100 µM (inactive)
GI50 (M14): > 100 µM (inactive)
GI50 (NCI-H23): > 100 µM (inactive)
GI50 (SNB-19): > 100 µM (inactive)
GI50 (Malme-3M): > 100 µM (inactive)
GI50 (SF-268): > 100 µM (inactive)
GI50 (TK-10): > 100 µM (inactive)
GI50 (A549): > 100 µM (inactive)
GI50 (LOX IMVI): > 100 µM (inactive)
GI50 (HL-60): > 100 µM (inactive)
GI50 (EKVX): > 100 µM (inactive)
GI50 (NCI-H460): > 100 µM (inactive)
GI50 (SN12C): > 100 µM (inactive)
GI50 (COLO 205): > 100 µM (inactive)
GI50 (NCI-H226): > 100 µM (inactive)
GI50 (HT-29): > 100 µM (inactive)
GI50 (ACHN): > 100 µM (inactive)
GI50 (HCC 2998): > 100 µM (inactive)
GI50 (HCT-116): > 100 µM (inactive)
GI50 (OVCAR-8): > 100 µM (inactive)
GI50 (UACC-62): > 100 µM (inactive)
GI50 (RPMI-8226): > 100 µM (inactive)
